Reference: PubChem BioAssay (NCI)
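A five-concentration, 48-hour dose response in 96-well plates underlies each endpoint, interpolated linearly between surrounding concentrations. Here, GI50 denotes the concentration required for 50% inhibition of growth. TGI is the concentration that stops growth completely.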

Experiments:
Assay in all cases: DTP human tumour cell line panel, 48 h
786-0 renal = test system: 786-0 renal
A498 renal = test system: A498 renal
A549 NSCLC = test system: A549 NSCLC
ACHN renal = test system: ACHN renal
DU-145 prostate = test system: DU-145 prostate
HOP-62 NSCLC = test system: HOP-62 NSCLC
HOP-92 NSCLC = test system: HOP-92 NSCLC
MDA-MB-231 breast = test system: MDA-MB-231 breast
NCI-H460 lung = test system: NCI-H460 lung
OVCAR-3 ovarian = test system: OVCAR-3 ovarian
PC-3 prostate = test system: PC-3 prostate
SF-268 CNS = test system: SF-268 CNS
SF-539 CNS = test system: SF-539 CNS
SK-MEL-28 melanoma = test system: SK-MEL-28 melanoma
SK-OV-3 ovarian = test system: SK-OV-3 ovarian
SW-620 colon = test system: SW-620 colon
TK-10 renal = test system: TK-10 renal
UACC-257 melanoma = test system: UACC-257 melanoma
UO-31 renal = test system: UO-31 renal
BT-549 breast = test system: BT-549 breast
CCRF-CEM leukemia = test system: CCRF-CEM leukemia
EKVX NSCLC = test system: EKVX NSCLC
HCC-2998 colon = test system: HCC-2998 colon
HCT-15 colon = test system: HCT-15 colon
HS 578T breast = test system: HS 578T breast
HT29 colon = test system: HT29 colon
IGROV1 ovarian = test system: IGROV1 ovarian
K-562 leukemia = test system: K-562 leukemia
KM12 colon = test system: KM12 colon
LOX IMVI melanoma = test system: LOX IMVI melanoma
M14 melanoma = test system: M14 melanoma
MALME-3M melanoma = test system: MALME-3M melanoma
MCF7 breast = test system: MCF7 breast
MDA-MB-435 = test system: MDA-MB-435
MOLT-4 leukemia = test system: MOLT-4 leukemia
NCI-H226 lung = test system: NCI-H226 lung
NCI-H23 lung = test system: NCI-H23 lung
NCI-H522 lung = test system: NCI-H522 lung
NCI/ADR-RES ovarian = test system: NCI/ADR-RES ovarian
OVCAR-4 ovarian = test system: OVCAR-4 ovarian
OVCAR-5 ovarian = test system: OVCAR-5 ovarian
OVCAR-8 ovarian = test system: OVCAR-8 ovarian
RPMI-8226 leukemia = test system: RPMI-8226 leukemia
RXF 393 renal = test system: RXF 393 renal
SF-295 CNS = test system: SF-295 CNS
SK-MEL-2 melanoma = test system: SK-MEL-2 melanoma
SK-MEL-5 melanoma = test system: SK-MEL-5 melanoma
SN12C renal = test system: SN12C renal
SNB-19 CNS = test system: SNB-19 CNS
SNB-75 CNS = test system: SNB-75 CNS
SR leukemia = test system: SR leukemia
U251 CNS = test system: U251 CNS
UACC-62 melanoma = test system: UACC-62 melanoma
CAKI-1 renal = test system: CAKI-1 renal
COLO 205 colon = test system: COLO 205 colon
HCT-116 colon = test system: HCT-116 colon
HL-60(TB) leukemia = test system: HL-60(TB) leukemia
T-47D breast = test system: T-47D breast

## Fc1ccc2c(c1)c(-c1nc(-c3c[nH]c4ncccc34)cs1)cn2CCCCN1CCCCC1
786-0 renal
  GI50: 1.62 µM
  TGI: 3.07 µM
A498 renal
  GI50: 1.51 µM
  TGI: 3.05 µM
A549 NSCLC
  GI50: 1.77 µM
  TGI: 3.31 µM
ACHN renal
  GI50: 1.67 µM
  TGI: 3.1 µM
DU-145 prostate
  GI50: 1.76 µM
  TGI: 3.21 µM
HOP-62 NSCLC
  GI50: 1.53 µM
  TGI: 3.01 µM
HOP-92 NSCLC
  GI50: 1.16 µM
  TGI: 2.48 µM
MDA-MB-231 breast
  GI50: 1.61 µM
  TGI: 3.04 µM
NCI-H460 lung
  GI50: 1.81 µM
  TGI: 3.47 µM
OVCAR-3 ovarian
  GI50: 1.75 µM
  TGI: 3.2 µM
PC-3 prostate
  GI50: 1.49 µM
  TGI: 2.89 µM
SF-268 CNS
  GI50: 1.63 µM
  TGI: 3.22 µM
SF-539 CNS
  GI50: 1.61 µM
  TGI: 3.02 µM
SK-MEL-28 melanoma
  GI50: 1.78 µM
  TGI: 3.32 µM
SK-OV-3 ovarian
  GI50: 1.72 µM
  TGI: 3.14 µM
SW-620 colon
  GI50: 1.74 µM
  TGI: 3.24 µM
TK-10 renal
  GI50: 2.3 µM
  TGI: 3.89 µM
UACC-257 melanoma
  GI50: 1.76 µM
  TGI: 3.33 µM
UO-31 renal
  GI50: 1.23 µM
  TGI: 2.57 µM

## Nc1nc2ncc(CNc3ccc(C(=O)NC(CCC(=O)O)C(=O)O)cc3)nc2c(=O)[nH]1 (stereo unspecified)
786-0 renal
  TGI: > 100 µM
A549 NSCLC
  TGI: > 100 µM
ACHN renal
  TGI: > 100 µM
BT-549 breast
  TGI: > 100 µM
CCRF-CEM leukemia
  TGI: > 100 µM
EKVX NSCLC
  TGI: > 100 µM
HCC-2998 colon
  TGI: > 100 µM
HCT-15 colon
  TGI: > 100 µM
HOP-62 NSCLC
  TGI: > 100 µM
HS 578T breast
  TGI: > 100 µM
HT29 colon
  TGI: > 100 µM
IGROV1 ovarian
  TGI: > 100 µM
K-562 leukemia
  TGI: > 100 µM
KM12 colon
  TGI: > 100 µM
LOX IMVI melanoma
  TGI: > 100 µM
M14 melanoma
  TGI: > 100 µM
MALME-3M melanoma
  TGI: > 100 µM
MCF7 breast
  TGI: > 100 µM
MDA-MB-435
  TGI: > 100 µM
MOLT-4 leukemia
  TGI: > 100 µM
NCI-H226 lung
  TGI: > 100 µM
NCI-H23 lung
  TGI: > 100 µM
NCI-H460 lung
  TGI: > 100 µM
NCI-H522 lung
  TGI: > 100 µM
NCI/ADR-RES ovarian
  TGI: > 100 µM
OVCAR-3 ovarian
  TGI: > 100 µM
OVCAR-4 ovarian
  TGI: > 100 µM
OVCAR-5 ovarian
  TGI: > 100 µM
OVCAR-8 ovarian
  TGI: > 100 µM
PC-3 prostate
  TGI: > 100 µM
RPMI-8226 leukemia
  TGI: > 100 µM
RXF 393 renal
  TGI: > 100 µM
SF-268 CNS
  TGI: > 100 µM
SF-295 CNS
  TGI: > 100 µM
SF-539 CNS
  TGI: > 100 µM
SK-MEL-2 melanoma
  TGI: > 100 µM
SK-MEL-28 melanoma
  TGI: > 100 µM
SK-MEL-5 melanoma
  TGI: > 100 µM
SN12C renal
  TGI: > 100 µM
SNB-19 CNS
  TGI: > 100 µM
SNB-75 CNS
  TGI: > 100 µM
SR leukemia
  TGI: > 100 µM
SW-620 colon
  TGI: > 100 µM
TK-10 renal
  TGI: > 100 µM
U251 CNS
  TGI: > 100 µM
UACC-257 melanoma
  TGI: > 100 µM
UACC-62 melanoma
  TGI: > 100 µM
UO-31 renal
  TGI: > 100 µM

## O=C(Nc1ccc(-n2ccc3c(NC(=O)c4ccccc4)ncnc32)cc1)Nc1ccc(Cl)c(Cl)c1
A498 renal
  GI50: 7.05 µM
  TGI: 14.7 µM
A549 NSCLC
  GI50: 1.95 µM
  TGI: 6.64 µM
ACHN renal
  GI50: 6.25 µM
  TGI: 14.2 µM
CAKI-1 renal
  GI50: 8.79 µM
  TGI: 21.2 µM
CCRF-CEM leukemia
  GI50: 0.987 µM
  TGI: 2.83 µM
COLO 205 colon
  GI50: 2.6 µM
  TGI: 9.89 µM
DU-145 prostate
  GI50: 1.9 µM
  TGI: 6.31 µM
EKVX NSCLC
  GI50: 7.24 µM
  TGI: 21 µM
HCC-2998 colon
  GI50: 5.34 µM
  TGI: 20.7 µM
HCT-116 colon
  GI50: 1.66 µM
  TGI: 5.06 µM
HCT-15 colon
  GI50: 1.74 µM
  TGI: 6.97 µM
HL-60(TB) leukemia
  GI50: 8.18 µM
  TGI: 30.6 µM
HOP-62 NSCLC
  GI50: 1.85 µM
  TGI: 7.44 µM
HOP-92 NSCLC
  GI50: 1.12 µM
  TGI: 6.94 µM
HS 578T breast
  GI50: 1.19 µM
  TGI: 5.77 µM
HT29 colon
  GI50: 0.965 µM
  TGI: 2.9 µM
IGROV1 ovarian
  GI50: 7.16 µM
  TGI: 18.2 µM
K-562 leukemia
  GI50: 1.73 µM
  TGI: 6.75 µM
KM12 colon
  GI50: 1.8 µM
  TGI: 6.67 µM
LOX IMVI melanoma
  GI50: 2.38 µM
  TGI: 16.3 µM
M14 melanoma
  GI50: 2.42 µM
  TGI: 8.11 µM
MALME-3M melanoma
  GI50: 3.39 µM
  TGI: 12 µM
MCF7 breast
  GI50: 1.9 µM
  TGI: 8.25 µM
MDA-MB-231 breast
  GI50: 4.11 µM
  TGI: 11 µM
MDA-MB-435
  GI50: 2.44 µM
  TGI: 11.5 µM
MOLT-4 leukemia
  GI50: 2.75 µM
  TGI: 12.9 µM
NCI-H226 lung
  GI50: 11.7 µM
  TGI: 29.2 µM
NCI-H23 lung
  GI50: 6.33 µM
  TGI: 22.3 µM
NCI-H460 lung
  GI50: 1.71 µM
  TGI: 5.85 µM
NCI-H522 lung
  GI50: 1.28 µM
  TGI: 7.34 µM
NCI/ADR-RES ovarian
  GI50: 10.3 µM
  TGI: 50 µM
OVCAR-3 ovarian
  GI50: 1.35 µM
  TGI: 3.5 µM
OVCAR-4 ovarian
  GI50: 0.887 µM
  TGI: 1.8 µM
OVCAR-5 ovarian
  GI50: 5.62 µM
  TGI: 13.2 µM
OVCAR-8 ovarian
  GI50: 2.38 µM
  TGI: 8.6 µM
PC-3 prostate
  GI50: 1.06 µM
  TGI: 2.86 µM
RPMI-8226 leukemia
  GI50: 1.21 µM
  TGI: 3.2 µM
RXF 393 renal
  GI50: 6.48 µM
  TGI: 13.3 µM
SF-268 CNS
  GI50: 4.22 µM
  TGI: 12.9 µM
SF-295 CNS
  GI50: 4.5 µM
  TGI: 14.2 µM
SF-539 CNS
  GI50: 1.32 µM
  TGI: 10.3 µM
SK-MEL-2 melanoma
  GI50: 5.2 µM
  TGI: 12.9 µM
SK-MEL-28 melanoma
  GI50: 2.92 µM
  TGI: 9.43 µM
SK-MEL-5 melanoma
  GI50: 7.05 µM
  TGI: 15.1 µM
SN12C renal
  GI50: 4.76 µM
  TGI: 12.3 µM
SNB-19 CNS
  GI50: 4.58 µM
  TGI: 12.6 µM
SNB-75 CNS
  GI50: 1.03 µM
  TGI: 5.27 µM
SR leukemia
  GI50: 1.17 µM
  TGI: 2.7 µM
SW-620 colon
  GI50: 1.54 µM
  TGI: 5.31 µM
T-47D breast
  GI50: 3.32 µM
  TGI: 11.7 µM
TK-10 renal
  GI50: 1.44 µM
  TGI: 3.46 µM
U251 CNS
  GI50: 0.942 µM
  TGI: 2.29 µM
UACC-257 melanoma
  GI50: 3.57 µM
  TGI: 10.8 µM
UACC-62 melanoma
  GI50: 6.34 µM
  TGI: 13.1 µM
UO-31 renal
  GI50: 7.16 µM
  TGI: 14.8 µM
